Data on eleven molecules can be found in ChEMBL document CHEMBL1201862, “PubChem BioAssay data set” (2004).

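Grown in 96-well plates, cells were treated for 48 hours with each compound at five concentrations. Insufficient inhibition: endpoint recorded as highest concentration tested. Here, GI50 denotes the concentration required for 50% inhibition of growth.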 Active and inactive are the calls of the source. No stated cut-off is given here; in the data, active = GI50 up to about 1.1 µM and inactive = higher.

Some test systems named below: TK-10; CCRF-CEM; BT-549; SN12C; NCI/ADR-RES; SNB-75; Hs-578T; A549; MDA-MB-435; HOP-62; MCF7; SF-295; SF-268; EKVX; UO-31; M14; SR; OVCAR-4; MDA-MB-231; LOX IMVI.
Test in all cases: NCI tumour cell line growth inhibition, 48 h

Take `Oc1ccc(C[C@@H]2CN[C@H](Cc3ccc(O)c(Br)c3)CN2)cc1`: the GI50 with TK-10, with CCRF-CEM, in the test on BT-549, in the test on SN12C, with NCI/ADR-RES and with SNB-75 was > 100 µM (inactive) in each case. Besides, the GI50 with Hs-578T, with A549, in the test with MDA-MB-435, in the test with HOP-62, with MCF7 and in the test with SF-295 was > 100 µM (inactive) throughout. The GI50 with SF-268, with EKVX, with UO-31, in the test on M14, in the test on SR and with OVCAR-4 was > 100 µM (inactive) in each case. Besides, in the test on MDA-MB-231, the GI50 was > 100 µM (inactive).

For `COc1cc(C2C3=C(COC3=O)Oc3cc4c(cc32)OCO4)cc(OC)c1OC` (centres undefined), the GI50 with TK-10 was > 10 µM (inactive); in the test with CCRF-CEM it was 0.0314 µM (active); with BT-549, 0.245 µM (active); with SN12C, 0.0515 µM (active); in the test on NCI/ADR-RES, 0.0185 µM (active); in the test with LOX IMVI, < 0.0164 µM (active). In addition, the GI50 in the test on SNB-75 is 0.00993 µM (active); in the test on Hs-578T it was 0.0521 µM (active); with A549, 0.0354 µM (active); with MDA-MB-435, 0.0295 µM (active); with HOP-62 it was < 0.0255 µM (active); with MCF7, 0.0423 µM (active). In addition, the GI50 in the test on SF-295 was 0.0109 µM (active); with SF-268, 0.0417 µM (active); with EKVX it was 0.015 µM (active); in the test on UO-31 it was 0.139 µM (active); in the test with M14, 0.0326 µM (active); in the test with SR it was 0.0424 µM (active). Further, the GI50 in the test on MDA-MB-231 is 0.0667 µM (active).

`CN1C(=O)C(C(N)=O)C2CC1(C)Oc1ccccc12` (centres undefined): the GI50 in the test on CCRF-CEM, in the test on BT-549, with SN12C, with NCI/ADR-RES, with LOX IMVI and in the test with SNB-75 was > 100 µM (inactive) throughout. Moreover, the GI50 in the test on Hs-578T, in the test on A549, in the test on MDA-MB-435, in the test with HOP-62, in the test with MCF7 and in the test on SF-268 was > 100 µM (inactive) in each case. Besides, the GI50 in the test on EKVX, with M14, in the test on SR, in the test on OVCAR-4 and in the test on MDA-MB-231 was > 100 µM (inactive) each time.

For `O=NN1C(c2ccccc2)CC(=NO)CC1c1ccccc1` (centres undefined), the GI50 with TK-10 was > 100 µM (inactive); in the test with BT-549 it was > 100 µM (inactive); with SN12C, > 100 µM (inactive); in the test with NCI/ADR-RES it was > 100 µM (inactive); with LOX IMVI it was > 100 µM (inactive); with SNB-75, 88.5 µM (inactive). In addition, the GI50 with Hs-578T, with A549, in the test on MDA-MB-435, in the test with HOP-62, in the test on MCF7 and in the test on SF-295 was > 100 µM (inactive) throughout. The GI50 with SF-268, in the test on EKVX, in the test on UO-31, in the test with M14, in the test on OVCAR-4 and in the test on MDA-MB-231 was > 100 µM (inactive) each time.

As for `CSc1nc(NC(C)C)c2c(n1)Sc1nc3ccccc3n1N=C2`, the GI50 was 13.8 µM (inactive) in the test on TK-10; 6.58 µM (inactive) in the test with CCRF-CEM; 18.7 µM (inactive) with BT-549; 10.7 µM (inactive) with SN12C; 6.92 µM (inactive) in the test with NCI/ADR-RES; 10.7 µM (inactive) in the test on LOX IMVI. Moreover, the GI50 with Hs-578T was 20 µM (inactive); in the test on A549, 5.33 µM (inactive); in the test with MDA-MB-435, 17.4 µM (inactive); in the test on HOP-62, 5.66 µM (inactive); with MCF7, 20.3 µM (inactive); with SF-295, 6.03 µM (inactive). Further, the GI50 in the test on SF-268 was 25.7 µM (inactive); with EKVX, 21.1 µM (inactive); with UO-31 it was 5.32 µM (inactive); in the test on M14, 40.5 µM (inactive); in the test on SR, 13.2 µM (inactive); in the test with OVCAR-4 it was 3.85 µM (inactive). For the same molecule, the GI50 with MDA-MB-231 was 11.1 µM (inactive).

With `[N-]=[N+]=NC1=C(c2ccccn2)C(=O)c2cccc3cccc1c23`, the GI50 in the test with TK-10 is 41.7 µM (inactive); with CCRF-CEM it was 7.03 µM (inactive); in the test with BT-549 it was 27.3 µM (inactive); in the test on SN12C it was 20.8 µM (inactive); in the test on NCI/ADR-RES, 50.8 µM (inactive); with LOX IMVI, 8.65 µM (inactive). Besides, the GI50 with SNB-75 was 29 µM (inactive); in the test on Hs-578T, 27 µM (inactive); in the test with A549, 27.7 µM (inactive); with MDA-MB-435, 36.5 µM (inactive); with HOP-62, 19.7 µM (inactive); with MCF7, 23.6 µM (inactive). Also, the GI50 is 42.5 µM (inactive) with SF-295; 12 µM (inactive) in the test with SF-268; 7.48 µM (inactive) with UO-31; 23.9 µM (inactive) with M14; 27.7 µM (inactive) in the test with SR; 31.1 µM (inactive) in the test with OVCAR-4. Besides, the GI50 in the test on MDA-MB-231 is 69.3 µM (inactive).

Turning to `NC1c2c(Cl)sc(Cl)c2C(=O)C1O` (centres undefined), the GI50 was > 100 µM (inactive) in the test with TK-10; 19 µM (inactive) with CCRF-CEM; 15.6 µM (inactive) with BT-549; 15.8 µM (inactive) in the test with SN12C; 36.9 µM (inactive) with NCI/ADR-RES; 23.4 µM (inactive) in the test on LOX IMVI. Moreover, the GI50 is 33.6 µM (inactive) in the test on SNB-75; 35.1 µM (inactive) with Hs-578T; > 100 µM (inactive) in the test with A549; 42.2 µM (inactive) with MDA-MB-435; 18.9 µM (inactive) in the test on MCF7; 32.6 µM (inactive) with SF-295. Further, the GI50 with SF-268 was 43.1 µM (inactive); in the test on EKVX it was 21.6 µM (inactive); with UO-31, 31.9 µM (inactive); in the test on M14, 32.3 µM (inactive); with OVCAR-4 it was 17.2 µM (inactive); in the test with MDA-MB-231 it was 37.8 µM (inactive).

Regarding `C=C(CCOC)CCC1CCCCC(=C)C1=O` (centres undefined), the GI50 with CCRF-CEM, with BT-549, in the test with SN12C, in the test with NCI/ADR-RES, with LOX IMVI and in the test on SNB-75 was > 100 µM (inactive) throughout. The GI50 in the test on Hs-578T, with A549, in the test with MDA-MB-435, with HOP-62, in the test with MCF7 and in the test on SF-295 was > 100 µM (inactive) throughout. The GI50 in the test on SF-268, in the test with EKVX, in the test on UO-31, in the test on M14, in the test on SR and in the test on OVCAR-4 was > 100 µM (inactive) each time. In addition, the GI50 in the test on MDA-MB-231 is > 100 µM (inactive).

As for `COc1ccc(CC2c3cc(OC)c(OC)c(OC)c3CC[N+]2(C)C)cc1Oc1ccc(CC2c3cc4c(c(OC)c3CCN2C)OCO4)cc1` (centres undefined), the GI50 in the test with TK-10, with BT-549, in the test with SN12C, in the test with NCI/ADR-RES, in the test on LOX IMVI and in the test on SNB-75 was > 100 µM (inactive) each time. Moreover, the GI50 in the test with Hs-578T, in the test on A549, in the test on MDA-MB-435, in the test on MCF7, in the test with SF-295 and in the test on SF-268 was > 100 µM (inactive) in each case. Also, the GI50 is > 100 µM (inactive) in the test with EKVX; > 100 µM (inactive) with UO-31; > 100 µM (inactive) in the test with M14; 52.1 µM (inactive) with SR; > 100 µM (inactive) with OVCAR-4; > 100 µM (inactive) in the test on MDA-MB-231.

On to `CC(CN(C)C)C(C#N)(c1ccccc1)c1ccccc1` (centres undefined), for which the GI50 in the test with TK-10 was > 100 µM (inactive); in the test on CCRF-CEM it was 49.1 µM (inactive); in the test with BT-549, > 100 µM (inactive); in the test on SN12C it was > 100 µM (inactive); in the test with NCI/ADR-RES it was > 100 µM (inactive); in the test with LOX IMVI, > 100 µM (inactive). The GI50 with SNB-75, with Hs-578T, in the test on A549, in the test with MDA-MB-435, in the test on HOP-62 and in the test on MCF7 was > 100 µM (inactive) each time. Further, the GI50 in the test on SF-295, in the test on SF-268, in the test on EKVX, with UO-31, in the test with M14 and in the test with OVCAR-4 was > 100 µM (inactive) each time. Besides, the GI50 in the test on MDA-MB-231 was > 100 µM (inactive).

For `COC(=O)[C@H](Cc1ccccc1)NC(=O)N(CCC#N)CCN(C(=O)N[C@@H](Cc1ccccc1)C(=O)OC)c1ccccc1`, the GI50 with TK-10 was 20 µM (inactive); with CCRF-CEM, 27.2 µM (inactive); in the test with BT-549, 49.3 µM (inactive); in the test with SN12C, 32.2 µM (inactive); in the test on NCI/ADR-RES it was > 100 µM (inactive); with LOX IMVI, 22.5 µM (inactive). Moreover, the GI50 in the test with SNB-75 was 17.5 µM (inactive); in the test on Hs-578T, 32.7 µM (inactive); in the test on A549, 47.1 µM (inactive); with MDA-MB-435 it was 18.9 µM (inactive); in the test on HOP-62 it was 41.1 µM (inactive); in the test on MCF7, 38.5 µM (inactive). Besides, the GI50 with SF-295 is 33.8 µM (inactive); with SF-268 it was 22.8 µM (inactive); with EKVX it was 29.5 µM (inactive); with UO-31, 17.6 µM (inactive); with M14, 24.9 µM (inactive); in the test with OVCAR-4, 23.6 µM (inactive). In the test on MDA-MB-231, the GI50 was 26.7 µM (inactive).
